# Test results published in article PMC3588188, “Interactions between Human Liver Fatty Acid Binding Protein and Peroxisome Proliferator Activated Receptor Selective Drugs” (PPAR Research, 2013).
# Where two headings read alike, the source gives them in different places.
# Columns and labels:
# human L-FABP [1] = molecular target: T1, human L-FABP (Homo sapiens, UniProt P07148); test: Fluorescent binding cavity probe binding to L-FABP
# T1 sequence (P07148 1-127): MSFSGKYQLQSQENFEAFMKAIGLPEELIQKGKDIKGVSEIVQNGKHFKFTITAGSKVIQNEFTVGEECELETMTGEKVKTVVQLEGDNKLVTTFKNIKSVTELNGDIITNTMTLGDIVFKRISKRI
# [2] = molecular target: T2, human PPARα LBD (aa 196–468) (Homo sapiens, UniProt Q07869); test: cis-parinaric acid fluorescence displacement assay with PPARα LBD; conditions: cis-parinaric acid (2 μM) displacement, LBD 1 μM; nd = no binding detected; read-out: Ki, PPARαLBD
# T2 construct: LBD of human PPARα (aa 196–468); [His]6 (N); made in house; host or cells: E. coli BL21 Codon Plus (DE3)-RIL (plasmid from Krister Bamberg, Astra-Zeneca)
# T2 sequence (Q07869 196-468): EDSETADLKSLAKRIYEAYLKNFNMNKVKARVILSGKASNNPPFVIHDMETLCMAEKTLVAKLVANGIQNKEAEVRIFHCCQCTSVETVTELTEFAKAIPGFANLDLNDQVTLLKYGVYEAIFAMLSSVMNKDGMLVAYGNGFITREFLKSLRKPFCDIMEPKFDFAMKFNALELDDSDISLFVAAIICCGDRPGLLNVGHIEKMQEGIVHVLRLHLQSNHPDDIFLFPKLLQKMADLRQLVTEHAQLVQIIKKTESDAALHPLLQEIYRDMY
# Experimental: (§1) Proteins were resolved using a step gradient of 0–300 mM imidazole in buffer A (50 mM Tris-HCl, pH 8.0; 500 mM NaCl; 0.5 mM ethylenediaminetetraacetic acid (EDTA); 1 mM dithiothreitol (DTT); 5% (v/v) glycerol) at a flow rate of 5 mL/min (4 column volumes (CVs) washout unbound sample; 0%–30% imidazole over 5 CVs; hold 30% for 2 CVs; 30%–100% imidazole over 5 CVs; hold 100% for 3 CVs).
# human L-FABP [3] = molecular target: T1, human L-FABP; test: ANS fluorescence displacement assay with L-FABP
# [4] = molecular target: T3, human PPARδ LBD (aa 171–441) (Homo sapiens, UniProt Q03181); test: cis-parinaric acid fluorescence displacement assay with PPARδ LBD; conditions: cis-parinaric acid (2 μM) displacement, LBD 1 μM; nd = no binding detected; read-out: Ki, PPARδLBD
# T3 construct: human PPARδ (aa 171–441); [His]6 (N); made in house; host or cells: E. coli BL21 Codon Plus (DE3)-RIL (plasmid from William Hunter, University of Dundee)
# T3 sequence (Q03181 171-441): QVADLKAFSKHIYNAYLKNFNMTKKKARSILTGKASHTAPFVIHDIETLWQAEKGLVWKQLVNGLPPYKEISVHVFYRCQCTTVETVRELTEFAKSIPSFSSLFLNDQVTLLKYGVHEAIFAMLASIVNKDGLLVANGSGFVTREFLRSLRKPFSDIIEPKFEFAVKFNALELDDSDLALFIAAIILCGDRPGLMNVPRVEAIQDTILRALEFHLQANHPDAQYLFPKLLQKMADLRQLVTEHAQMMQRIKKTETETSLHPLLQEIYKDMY
# Experimental: as §1
# human L-FABP [5] = molecular target: T1, human L-FABP; test: Differential scanning calorimetry of L-FABP; parameters: [His]6 (N); made in house; host or cells: E. coli BL21 Codon Plus (DE3)-RIL; conditions: holo-drug L-FABP; apo L-FABP Tm = 80.1; scan rate 0.5°C/min
# Experimental: DSC measurements were performed on N-DSC II calorimeter (Calorimetry Sciences Corporation, UT, USA) at a heating rate of 0.5°C/min. For preparation of 250 μM protein sample solutions, L-FABP was extensively buffer exchanged into buffer E (20 mM Tris-HCl pH 8.0) by ultrafiltration using Amicon Ultra 3 K centrifugal concentrators and degassed prior to filling the calorimeter cells. The filtrate from the sample preparation was used as a reference buffer for the DSC measurements. The thermal transition mid-point temperatures (T m) were calculated using CpCalc software (Calorimetry Sciences Corporation, UT, USA).
# human L-FABP [6] = molecular target: T1, human L-FABP; test: cis-parinaric acid fluorescence displacement assay with L-FABP; conditions: for displacement of cis-parinaric acid fluorescence from L-FABP: extent of probe displacement by drug titration
# PPARαLBD = molecular target: T4, PPARαLBD (Homo sapiens, UniProt Q07869); test: PPARαLBD protection from limited proteolysis (western blot); conditions: PPARαLBD 30 μM, drug 0, 1, 5 μM, trypsin 30 min at 20°C
# T4 construct: LBD of human PPARα (aa 196–468); [His]6 (N); made in house; host or cells: E. coli BL21 Codon Plus (DE3)-RIL (plasmid from Krister Bamberg, Astra-Zeneca)
# T4 sequence (Q07869 196-468): T2 sequence (Q07869 196-468)
# Text: […] […] The reaction was quenched by the addition of PMSF and one volume of SDS-PAGE sample buffer as detailed above. Samples were resolved by 15% resolving SDS-PAGE polyacrylamide gels then transferred to a PVDF membrane and probed with anti-human PPARα antibody (mapping to C-terminal aa 420–468 of the PPARαLBD; cat. no. sc1982 Santa-Cruz Biotechnology, Santa Cruz, CA, USA) by western blotting.
# human L-FABP [7] = molecular target: T1, human L-FABP; test: Limited proteolysis of L-FABP with trypsin; parameters: [His]6 (N); made in house; host or cells: E. coli BL21 Codon Plus (DE3)-RIL; conditions: drug 0-5 μM, L-FABP 50 μM, 1 hr at 20°C
# Experimental: The limited proteolysis of L-FABP (50 μM) with sequencing grade trypsin was carried out in buffer D (20 mM Tris-HCl, pH 8.0; 50 mM NaCl; […]. Apo- or holo-drug (0, 0.1, 0.4, 1.0, 5 μM final drug concentration) protein samples were equilibrated with the drug at 20°C for 15 min before protease was added. Digestion reactions were stopped by the addition of 5 μL of 50 mM phenylmethanesulfonyl fluoride (PMSF) followed by one volume of SDS-PAGE sample buffer (12.5% 0.5 M Tris-HCl pH 6.8; 0.005% bromophenol blue; 10% SDS; 10% glycerol; 2% β-mercaptoethanol) and heated for 2 min at 100°C. Samples were resolved on 4% stacking, 20% resolving polyacrylamide gels at 4°C at a constant voltage of 80 V, using the Laemmli buffer system. Gels were stained with Coomassie Blue G-250 and destained with 50% methanol/10% acetic acid (v/v) solution. Gels were dried between cellulose sheets and scanned at 1200 dpi. Protein bands were quantified densitometrically using LabImage 1D gel analysis software V3.4 (Kapelan GmbH, http://www.kapelan-bioimaging.com/).
# [8] = molecular target: T5, human PPARγ LBD (aa 193–475) (Homo sapiens, UniProt P37231); test: cis-parinaric acid fluorescence displacement assay with PPARγ LBD; format: binding
# T5 construct: human PPARγ (aa 193–475); [His]6 (N); made in house; host or cells: E. coli BL21 Codon Plus (DE3)-RIL (plasmid from Krister Bamberg, Astra-Zeneca)
# T5 sequence (P37231 193-475 isoform P37231-2): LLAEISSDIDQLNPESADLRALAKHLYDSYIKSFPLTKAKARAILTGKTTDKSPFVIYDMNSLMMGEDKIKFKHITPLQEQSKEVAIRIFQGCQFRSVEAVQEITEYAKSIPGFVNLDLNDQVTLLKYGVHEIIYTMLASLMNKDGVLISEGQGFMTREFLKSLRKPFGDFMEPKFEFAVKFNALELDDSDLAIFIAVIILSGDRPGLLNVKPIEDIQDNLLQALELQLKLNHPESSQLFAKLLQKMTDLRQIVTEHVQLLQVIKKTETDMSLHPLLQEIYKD
# Experimental: as §1
# [9] = cis-parinaric acid (2 μM) displacement, LBD 1 μM, nd = no binding detected, read-out: Ki, PPARγLBD
Structure (SMILES),Ki [2],Ki (human L-FABP [3]),Ki [4],also measured
O=S(=O)(O)c1cccc2cccc(Nc3ccccc3)c12,,,,Kd (human L-FABP [1]): 6 ± 2.6 µM
CC(C)(Oc1ccc(C(=O)c2ccc(Cl)cc2)cc1)C(=O)O [Fenofibric acid],10 ± 3 µM,1 ± 0.2 µM,49 ± 4 µM,
"CCCc1c(OCCCOc2ccc(OCC(=O)O)cc2)ccc(C(C)=O)c1O [L-165,041]",4.2 ± 0.4 µM,1.4 ± 0.6 µM,0.8 ± 0.3 µM,"Ki (human L-FABP [6]): 2.3 µM; displacement of cis-parinaric acid fluorescence from L-FABP (human L-FABP [6]): could not completely displace the cis-parinaric acid fluorescence; protection of L-FABP from limited proteolysis (human L-FABP [7]): protects L-FABP from limited proteolysis; Ki [8, 9]: 12 ± 2.1 µM"
CCCCCCCC/C=C\CCCCCCCC(=O)O [Oleate],0.21 ± 0.08 µM,,1.1 ± 0.26 µM,Ki [8]: 0.6 ± 0.015 µM
CN(CCOc1ccc(CC2SC(=O)NC2=O)cc1)c1ccccn1 (centres unmarked) [Rosiglitazone],,2.8 ± 1.1 µM,,
Cc1c(C)c2c(c(C)c1O)CCC(C)(COc1ccc(CC3SC(=O)NC3=O)cc1)O2 (centres unmarked) [Troglitazone],,1.7 ± 0.5 µM,,

# Further lines, with some results ahead:
Ki [2],Ki (human L-FABP [3]),Ki [4],Structure (SMILES),also measured
,1.6 ± 0.7 µM,,CN(CCOc1ccc(C[C@H](Nc2ccccc2C(=O)c2ccccc2)C(=O)O)cc1)c1ccccn1 [GW1929],
,0.32 ± 0.13 µM,,CC(C)(Sc1ccc(CCN(CCCCC2CCCCC2)C(=O)NC2CCCCC2)cc1)C(=O)O [GW7647],thermal transition mid-point temperature (Tm) of L-FABP in complex with drug (human L-FABP [5]): 86.7 °C; Ki (human L-FABP [6]): 0.55 µM; displacement of cis-parinaric acid fluorescence from L-FABP (human L-FABP [6]): could not completely displace the cis-parinaric acid fluorescence; protection of PPARαLBD from limited proteolysis (PPARαLBD): afforded protection to the PPARαLBD against proteolysis; protection of L-FABP from limited proteolysis (human L-FABP [7]): afforded more resistance to proteolysis
,20 ± 3.8 µM,23 ± 4 µM,Cc1nc(-c2ccc(C(F)(F)F)cc2)sc1C(=O)NCc1ccc(OC(C)(C)C(=O)O)cc1 [GW590735],"Ki [8, 9]: 4.4 ± 2.3 µM"
